# “And” between values parts separate entries of the source, which are not always exact repeats. Equal values may be shown once. Inconclusive results and toxic doses are left out.
# System: BDF1 mice, B16 melanoma ip, median survival T/C
# Assay: NCI In Vivo Anticancer Drug Screen. Data for tumor model B16 Melanoma (intraperitoneal) in B6D2F1 (BDF1) mice
# Settings: endpoint: median survival time, higher = longer survival
# Outline: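 The ratio T/C compares compound-treated mice with vehicle-treated controls, using survival or tumor size as the endpoint in a transplantable tumor model.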
# [1] = dose: 12.5 mg/kg/injection, schedule: Q01DX009 (ip), vehicle: saline with Tween-80
# [2] = dose: 25.0 mg/kg/injection, schedule: Q01DX009 (ip), vehicle: saline with Tween-80
# [3] = dose: 50.0 mg/kg/injection, schedule: Q01DX009 (ip), vehicle: saline with Tween-80
# [4] = dose: 100.0 mg/kg/injection, schedule: Q04DX003 (ip), vehicle: Klucel (hydroxypropylcellulose) (HPC)
# [5] = dose: 200.0 mg/kg/injection, schedule: Q04DX003 (ip), vehicle: Klucel (hydroxypropylcellulose) (HPC)
# [6] = dose: 400.0 mg/kg/injection, schedule: Q04DX003 (ip), vehicle: Klucel (hydroxypropylcellulose) (HPC)
# [7] = dose: 6.25 mg/kg/injection, schedule: Q01DX009 (ip), vehicle: saline
# [8] = dose: 12.5 mg/kg/injection, schedule: Q01DX009 (ip), vehicle: saline
# [9] = dose: 25.0 mg/kg/injection, schedule: Q01DX009 (ip), vehicle: saline
# [10] = dose: 25.0 mg/kg/injection, schedule: Q01DX009 (ip), vehicle: Klucel (hydroxypropylcellulose) (HPC)
# [11] = dose: 50.0 mg/kg/injection, schedule: Q01DX009 (ip), vehicle: Klucel (hydroxypropylcellulose) (HPC)
# [12] = dose: 100.0 mg/kg/injection, schedule: Q01DX009 (ip), vehicle: Klucel (hydroxypropylcellulose) (HPC)
# [13] = dose: 200.0 mg/kg/injection, schedule: Q01DX009 (ip), vehicle: Klucel (hydroxypropylcellulose) (HPC)
# [14] = dose: 100.0 mg/kg/injection, schedule: Q01DX009 (ip), vehicle: saline with Tween-80
# [15] = dose: 200.0 mg/kg/injection, schedule: Q01DX009 (ip), vehicle: saline with Tween-80
# [16] = dose: 6.25 mg/kg/injection, schedule: Q01DX009 (ip), vehicle: Klucel (hydroxypropylcellulose) (HPC)
# [17] = dose: 12.5 mg/kg/injection, schedule: Q01DX009 (ip), vehicle: Klucel (hydroxypropylcellulose) (HPC)
# [18] = dose: 400.0 mg/kg/injection, schedule: Q01DX009 (ip), vehicle: saline with Tween-80
# [19] = dose: 400.0 mg/kg/injection, schedule: Q01DX009 (ip), vehicle: Klucel (hydroxypropylcellulose) (HPC)
compound,measurement,setting,value
COc1ccc(NC(=O)Nc2cc(C(F)(F)F)ccc2Cl)cc1,T/C,"dose: 8.0 mg/kg/injection, schedule: Q01DX009 (ip), vehicle: saline with Tween-80",100 % of control
same,T/C,"dose: 12.0 mg/kg/injection, schedule: Q01DX009 (ip), vehicle: saline with Tween-80",100 % of control
same,T/C,[1],215 % of control
same,T/C,"dose: 18.0 mg/kg/injection, schedule: Q01DX009 (ip), vehicle: saline with Tween-80",104 % of control
same,T/C,[2],194 % of control
same,T/C,[3],218 % of control
Cc1c(N=O)c(=O)n(-c2ccccc2)n1C,T/C,[4],100 % of control
same,T/C,[5],100 % of control
same,T/C,[6],106 % of control
O=S(=O)(O)c1ccc(/C2=c3\cc/c([n-]3)=C(\c3ccc(S(=O)(=O)O)cc3)c3ccc([n-]3)/C(c3ccc(S(=O)(=O)O)cc3)=c3/cc/c([n-]3)=C(\c3ccc(S(=O)(=O)O)cc3)c3ccc2[n-]3)cc1.[Co],T/C,"dose: 3.13 mg/kg/injection, schedule: Q01DX009 (ip), vehicle: saline",111 % of control
same,T/C,[7],107 % of control
same,T/C,[8],108 % of control
same,T/C,[9],101 % of control
O=C(O)C1(C(=O)O)CCC1.[NH2-].[NH2-].[Pt+2],T/C,"dose: 2.0 mg/kg/injection, schedule: Q01DX009 (ip), vehicle: saline",112 % of control
same,T/C,"dose: 4.0 mg/kg/injection, schedule: Q01DX009 (ip), vehicle: saline",115 % of control
same,T/C,"dose: 6.25 mg/kg/injection, schedule: Q01DX009 (ip), vehicle: other",123 % of control
same,T/C,"dose: 8.0 mg/kg/injection, schedule: Q01DX009 (ip), vehicle: saline",150 % of control
same,T/C,"dose: 12.5 mg/kg/injection, schedule: Q01DX009 (ip), vehicle: other",176 % of control
same,T/C,"dose: 16.0 mg/kg/injection, schedule: Q01DX009 (ip), vehicle: saline",176 % of control
same,T/C,"dose: 25.0 mg/kg/injection, schedule: Q01DX009 (ip), vehicle: other",160 % of control and 164 % of control
same,T/C,"dose: 32.0 mg/kg/injection, schedule: Q01DX009 (ip), vehicle: saline",176 % of control
O=C(Nc1ccc(NC2=NCCN2)cc1)c1cccc(C(=O)Nc2ccc(NC3=NCCN3)cc2)c1,T/C,"dose: 7.5 mg/kg/injection, schedule: Q01DX009 (ip), vehicle: saline with Tween-80",105 % of control
same,T/C,"dose: 7.5 mg/kg/injection, schedule: Q04DX003 (ip), vehicle: saline with Tween-80",100 % of control
same,T/C,"dose: 15.0 mg/kg/injection, schedule: Q01DX009 (ip), vehicle: saline with Tween-80",92 % of control
same,T/C,"dose: 15.0 mg/kg/injection, schedule: Q04DX003 (ip), vehicle: saline with Tween-80",88 % of control
same,T/C,"dose: 30.0 mg/kg/injection, schedule: Q04DX003 (ip), vehicle: saline with Tween-80",100 % of control
O=C(Nc1ccccc1F)Nc1ccccc1Cl,T/C,[10],96 % of control
same,T/C,[11],92 % of control
same,T/C,[12],92 % of control
same,T/C,[13],95 % of control
CC1(c2ccccc2)C(C#N)C(=O)NC(=O)C1C#N (stereo unspecified),T/C,[3],89 % of control
same,T/C,[14],89 % of control
same,T/C,[15],89 % of control
O=C(CCCC(=O)N1CCOCC1)N1CCOCC1,T/C,[4],97 % of control
same,T/C,[5],95 % of control
same,T/C,[6],92 % of control
Cc1cccc2c(C(=O)O)cc(-c3ccc(Cl)cc3)nc12,T/C,[1],97 % of control
same,T/C,[2],97 % of control
same,T/C,[3],95 % of control
N#CCc1c(Cl)ccc(Cl)c1Cl,T/C,[16],104 % of control
same,T/C,[17],99 % of control
same,T/C,[10],95 % of control
same,T/C,[11],107 % of control
Cc1cccc(NS(=O)(=O)c2ccc(Cl)cc2)c1C,T/C,"dose: 75.0 mg/kg/injection, schedule: Q01DX009 (ip), vehicle: Klucel (hydroxypropylcellulose) (HPC)",91 % of control
same,T/C,"dose: 150.0 mg/kg/injection, schedule: Q01DX009 (ip), vehicle: Klucel (hydroxypropylcellulose) (HPC)",95 % of control
same,T/C,"dose: 300.0 mg/kg/injection, schedule: Q01DX009 (ip), vehicle: Klucel (hydroxypropylcellulose) (HPC)",90 % of control
CCCCCCCC(=O)N/N=C(\CO)[C@]1(O)Cc2c(O)c3c(c(O)c2[C@@H](OC2CC(N)C(O)C(C)O2)C1)C(=O)c1c(OC)cccc1C3=O (stereo partly specified),T/C,"dose: 3.13 mg/kg/injection, schedule: Q01DX001 (ip), vehicle: water",168 % of control
same,T/C,"dose: 6.25 mg/kg/injection, schedule: Q01DX001 (ip), vehicle: water",157 % of control and 200 % of control
same,T/C,"dose: 12.5 mg/kg/injection, schedule: Q01DX001 (ip), vehicle: water",173 % of control and 212 % of control
same,T/C,"dose: 25.0 mg/kg/injection, schedule: Q01DX001 (ip), vehicle: water",174 % of control and 220 % of control and 231 % of control
same,T/C,"dose: 50.0 mg/kg/injection, schedule: Q01DX001 (ip), vehicle: water",91 % of control and 228 % of control and 236 % of control
c1ccc(-c2nn3c(-c4ccccc4)nnc3o2)cc1,T/C,[14],93 % of control
same,T/C,[15],92 % of control
same,T/C,[18],92 % of control
COc1c(I)c2c(c(OC)c1OC)-c1ccc(OC)c(=O)cc1C(NC(C)=O)CC2 (stereo unspecified),T/C,"dose: 0.78 mg/kg/injection, schedule: Q01DX009 (ip), vehicle: Klucel (hydroxypropylcellulose) (HPC)",104 % of control
same,T/C,"dose: 1.56 mg/kg/injection, schedule: Q01DX009 (ip), vehicle: Klucel (hydroxypropylcellulose) (HPC)",104 % of control and 124 % of control
same,T/C,"dose: 3.12 mg/kg/injection, schedule: Q01DX009 (ip), vehicle: Klucel (hydroxypropylcellulose) (HPC)",112 % of control
same,T/C,[16],121 % of control
same,T/C,[17],112 % of control
CCOC(=O)CCOc1ccc(Cl)cc1,T/C,[14],101 % of control
same,T/C,[15],102 % of control
same,T/C,[18],96 % of control
Cc1c(N)nc([C@H](CC(N)=O)NC[C@H](N)C(N)=O)nc1C(=O)N[C@H](C(=O)N[C@H](C)[C@@H](O)[C@H](C)C(=O)N[C@H](C(=O)NCCc1nc(-c2nc(C(=O)NCCC[S+](C)C)cs2)cs1)[C@@H](C)O)C(OC1OC(CO)C(O)C(O)C1OC1OC(CO)C(O)C(OC(N)=O)C1O)c1cnc[nH]1 (stereo partly specified),T/C,"dose: 1.0 mg/kg/injection, schedule: Q01DX009 (ip), vehicle: clinical formulation",114 % of control
same,T/C,"dose: 2.0 mg/kg/injection, schedule: Q01DX009 (ip), vehicle: clinical formulation",121 % of control
same,T/C,"dose: 3.9 mg/kg/injection, schedule: Q01DX009 (ip), vehicle: saline",102 % of control
same,T/C,"dose: 4.0 mg/kg/injection, schedule: Q01DX009 (ip), vehicle: clinical formulation",120 % of control
same,T/C,"dose: 7.8 mg/kg/injection, schedule: Q01DX009 (ip), vehicle: saline",102 % of control
same,T/C,"dose: 8.0 mg/kg/injection, schedule: Q01DX009 (ip), vehicle: clinical formulation",124 % of control
same,T/C,"dose: 15.6 mg/kg/injection, schedule: Q01DX009 (ip), vehicle: saline",102 % of control
same,T/C,"dose: 16.0 mg/kg/injection, schedule: Q01DX009 (ip), vehicle: clinical formulation",123 % of control
same,T/C,"dose: 31.3 mg/kg/injection, schedule: Q01DX009 (ip), vehicle: saline",109 % of control
CC(C)(C)C1CC(C(F)(F)F)(C(F)(F)F)OS(=O)O1 (stereo unspecified),T/C,"dose: 1.56 mg/kg/injection, schedule: Q04DX003 (ip), vehicle: saline",102 % of control
same,T/C,"dose: 3.13 mg/kg/injection, schedule: Q04DX003 (ip), vehicle: saline",115 % of control
same,T/C,"dose: 6.25 mg/kg/injection, schedule: Q04DX003 (ip), vehicle: saline",105 % of control
COc1nc(=O)n(C2C=CC(=O)O2)cc1F (stereo unspecified),T/C,[7],101 % of control
same,T/C,[8],95 % of control
same,T/C,[9],89 % of control
same,T/C,"dose: 50.0 mg/kg/injection, schedule: Q01DX009 (ip), vehicle: saline",87 % of control
same,T/C,"dose: 100.0 mg/kg/injection, schedule: Q01DX009 (ip), vehicle: saline",91 % of control
c1ccc(-c2nnc(-c3ccccn3)nn2)nc1,T/C,[11],103 % of control
same,T/C,[12],107 % of control
same,T/C,[13],97 % of control
same,T/C,[19],96 % of control
CC(CC#N)OC(=O)c1cccc([N+](=O)[O-])c1 (stereo unspecified),T/C,[12],88 % of control
same,T/C,[13],99 % of control
same,T/C,[19],91 % of control

# From PubChem BioAssay AID192 (DTP/NCI, 2004)
